Experiments:
Giardia duodenalis [1] = experiment: Inhibition of Giardia intestinalis fructose 1,6-bisphosphate aldolase at 400 nM after 2 hrs by spectrophotometry
Giardia intestinalis [2] = experiment: Giardicidal activity against Giardia intestinalis IMSS:0696:1 compound treated for 48 hrs followed by incubation for 48 hrs in compound-free medium by cell counting; format: functional, organism-based; conditions: Giardia duodenalis, IMSS:0696:1, 48 h
Giardia intestinalis [3] = experiment: Ratio of nitazoxanide IC50 to compound IC50 for Giardia intestinalis IMSS:0696:1 compound treated for 48 hrs followed by incubation for 48 hrs in compound-free medium by cell counting; format: functional, Giardia duodenalis
Giardia intestinalis [4] = experiment: Ratio of metronidazole IC50 to compound IC50 for Giardia intestinalis IMSS:0696:1 compound treated for 48 hrs followed by incubation for 48 hrs in compound-free medium by cell counting; format: functional, Giardia duodenalis
[5] = Cytotoxicity against African green monkey Vero cells after 48 hrs by MTT assay; format: cell-based; conditions: chlorocebus sabaeus
Giardia duodenalis [6] = experiment: Ratio of nitazoxanide IC50 to compound IC50 for Giardia intestinalis fructose 1,6-bisphosphate aldolase at 400 nM after 2 hrs by spectrophotometry
[7] = Selectivity index, ratio of CC50 for african green monkey Vero cells to IC50 for Giardia intestinalis IMSS:0696:1; format: functional
Trichomonas vaginalis [8] = experiment: Trichomonicidal activity against Trichomonas vaginalis GT3 compound treated for 48 hrs followed by incubation for 48 hrs in compound-free medium by cell counting; format: functional, organism-based; conditions: GT3, 48 h
Trichomonas vaginalis [9] = experiment: Ratio of nitazoxanide IC50 to compound IC50 for Trichomonas vaginalis GT3 compound treated for 48 hrs followed by incubation for 48 hrs in compound-free medium by cell counting; format: functional
Trichomonas vaginalis [10] = experiment: Ratio of metronidazole IC50 to compound IC50 for Trichomonas vaginalis GT3 compound treated for 48 hrs followed by incubation for 48 hrs in compound-free medium by cell counting; format: functional

| SMILES | inhibition (Giardia duodenalis [1]) | IC50 (Giardia intestinalis [2]; read-out: IC50) | IC50 (Giardia intestinalis [2]; read-out: pIC50 (converted)) | Ratio IC50 (Giardia intestinalis [3]) | Ratio IC50 (Giardia intestinalis [4]) | CC50 at 48 h [5] | Ratio IC50 (Giardia duodenalis [6]) | Ratio CC50/IC50 [7] | IC50 (Trichomonas vaginalis [8]) | Ratio IC50 (Trichomonas vaginalis [9]) | Ratio IC50 (Trichomonas vaginalis [10]) |
| --- | --- | --- | --- | --- | --- | --- | --- | --- | --- | --- | --- |
| CC(=O)Oc1ccccc1C(=O)Nc1ncc([N+](=O)[O-])s1 | 31% |  |  |  |  |  |  |  |  |  |  |
| CCN(CC)CC(=O)Nc1ncc([N+](=O)[O-])s1 | 66% | 0.122 µM | 0.123 µM | 10 | 44 | > 1000 µM | 2 | 8196 | 2.25 µM |  |  |
| O=C(CN1CCCCC1)Nc1ncc([N+](=O)[O-])s1 | 5% | 0.219 µM |  |  |  | > 1000 µM |  |  | 2.04 µM |  |  |
| O=C(CN1CCOCC1)Nc1ncc([N+](=O)[O-])s1 | 54% | 0.151 µM | 0.151 µM | 8 | 35 | > 1000 µM | 2 | 6622 | 0.305 µM |  |  |
| Nc1ncc([N+](=O)[O-])s1 | -0% |  |  |  |  |  |  |  |  |  |  |
| O=C(CN1CCOCC1)Nc1nc2ccc([N+](=O)[O-])cc2s1 | 35% | 3.35 µM |  |  |  | > 1000 µM |  |  | 0.331 µM |  |  |
| Nc1nc2ccc([N+](=O)[O-])cc2s1 | -0% | 24.4 µM |  |  |  | 607 µM |  |  | 0.625 µM | 3 | 13 |
| Cc1ncc([N+](=O)[O-])n1CCO [METRONIDAZOLE] |  |  |  |  |  | 367 µM |  |  |  |  |  |
| O=C(CN1CCCC1)Nc1nc2ccc([N+](=O)[O-])cc2s1 | 10% | 0.298 µM |  |  |  | > 1000 µM |  |  | 0.221 µM |  |  |
| CC(=O)Nc1ncc([N+](=O)[O-])s1 [NITHIAMIDE] | -0% |  |  |  |  | > 1000 µM |  |  |  |  |  |
| O=C(Nc1ncc([N+](=O)[O-])s1)c1ccccc1O [TIZOXANIDE] | 25% |  |  |  |  | 388 µM |  |  |  |  |  |
| CCN(CC)CC(=O)Nc1nc2ccc([N+](=O)[O-])cc2s1 | -0% | 2.03 µM |  |  |  | > 1000 µM |  |  | 3.21 µM |  |  |
| O=C(CN1CCCC1)Nc1ncc([N+](=O)[O-])s1 | 21% | 0.178 µM |  | 5 | 24 | > 1000 µM |  |  | 6.1 µM |  |  |
| O=C(CN1CCCCC1)Nc1nc2ccc([N+](=O)[O-])cc2s1 | -0% | 2.31 µM |  |  |  | > 1000 µM |  |  | 3.43 µM |  |  |
